According to patent publication US4965351A, “4-demethoxy-4-amino-anthracyclines” (Farmitalia Carlo Erba S.R.L., priority 1987, dated 1990):
Converted amounts (≈) assume the structure as drawn. Where two headings read alike, the source gives them in different places.

Tests used:
[1] = tested on: human colon adenocarcinoma cells sensitive (LoVo) to doxorubicin; assay: Colony inhibition test after 4 h treatment, LoVo (in vitro cytotoxicity); format: cell-based; conditions: read-out: LoVo ID50
Protocol: (§1) The glycosides are antitumor agents. The activity of a representative compound of formula (I), 4-demethoxy-4-amino-daunorubicin (Ia), has been assessed by comparing its in vitro cytotoxicity against that of daunorubicin (DNR) in human colon adenocarcinoma cells sensitive (LoVo) or resistant (LoVo/DX) to doxorubicin.
(§2) Colony inhibition test after 4 h. treatment.

[2] = tested on: human colon adenocarcinoma cells resistant (LoVo/DX) to doxorubicin; assay: Colony inhibition test after 4 h treatment, LoVo/DX (in vitro cytotoxicity); format: cell-based; conditions: read-out: LoVo/DX ID50
Protocol: as §1, §2

[3] = tested on: disseminated Gross leukaemia; assay: In vivo activity against disseminated Gross leukaemia in mice, treatment i.v. on day 1 after tumor inoculum
Description: The in vivo activities of (Ia) and DNR against disseminated Gross leukaemia in mice also determined.
Treatment i.v on day 1 after tumor inoculum
TOX represents toxic death

Structure (SMILES)	IC50 ([1]; LoVo, 4 h) [µg/mL]	IC50 [2] [µg/mL]	T/C % ([3]; 10 mg/Kg i.v. on day 1) [%]	TOX (toxic death) ([3]; 10 mg/Kg i.v. on day 1)	T/C % ([3]; 15 mg/Kg i.v. on day 1) [%]	TOX (toxic death) ([3]; 15 mg/Kg i.v. on day 1)	T/C % ([3]; 22.5 mg/Kg i.v. on day 1) [%]	TOX (toxic death) ([3]; 22.5 mg/Kg i.v. on day 1)	IC50 ([1]; LoVo cells (doxorubicin-sensitive), 4 h treatment, colony inhibition) [µg/mL]	T/C % ([3]; 1.6 mg/Kg i.v. on day 1) [%]	TOX (toxic death) ([3]; 1.6 mg/Kg i.v. on day 1)	T/C % ([3]; 1.9 mg/Kg i.v. on day 1) [%]	TOX (toxic death) ([3]; 1.9 mg/Kg i.v. on day 1)	T/C % ([3]; 2.29 mg/Kg i.v. on day 1) [%]	TOX (toxic death) ([3]; 2.29 mg/Kg i.v. on day 1)
COc1cccc2c1C(=O)c1c(O)c3c(c(O)c1C2=O)C[C@@](O)(C(C)=O)C[C@@H]3O[C@H]1C[C@H](N)[C@H](O)[C@H](C)O1 [DNR, daunorubicin]	50.3 (≈ 95.4 µM)	1800 (≈ 3420 µM)	133	0/10	167	0/10	200	1/10	–	–	–	–	–	–	–
CC(=O)[C@]1(O)Cc2c(O)c3c(c(O)c2[C@@H](O[C@H]2C[C@H](N)[C@H](O)[C@H](C)O2)C1)C(=O)c1c(N)cccc1C3=O [Ia, 4-demethoxy-4-amino-daunorubicin]	–	99 (≈ 193 µM)	–	–	–	–	–	–	0.7 (≈ 1.37 µM)	183	0/10	192	0/10	200	1/10
